# Values joined by “and” are separate entries in the source; they are usually repeats but may differ in a detail not shown here. Identical values can stand only once.
# Columns and labels:
# [1] = test system: tumor cell lines and types; conditions: Laszlo et al. 1958; cited from earlier work
# tumor = conditions: cited from earlier work; for survival time / tumor growth: animal studies, Laszlo et al. 1960
# CD 1 mice = assay: Liver toxicity study of 2-Fluoro-2-deoxygalactose, serum chemistry and clinical observations; format: in vivo; conditions: for Alt (alanine aminotransferase) / Ast (aspartate aminotransferase) / Tbili (total bilirubin): about 0.2 ml, male CD-1 mice, Day 2, individual animals
# Procedure: The objective of this study was to evaluate the liver toxicity of 2-Fluoro-2-deoxygalactose when administered via intraperitoneal or intravenous injection to CD 1 mice. The study was initiated on Jan. 11, 2007, and consisted of three groups with three (3) male mice per group. On Day 1, each mouse GROUP was administered either about 0.2 ml of 10% 2 Fluoro 2 Deoxygalactose, intraperitoneally, about 0.2 ml of 10% 2 Fluoro 2 Deoxygalactose, intravenously, or about 0.2 ml of sterile 0.9% sodium chloride for injection, USP, intravenously. Criteria for evaluation included clinical observations and limited serum chemistry parameters (alanine aminotransferase [ALT], aspartate aminotransferase [AST], and total bilirubin). On Day 2, all animals were euthanized, blood was collected, and livers were collected and stored for potential histopathological evaluation.
# Clinical observations were performed at least once daily.
# normal liver tissue = assay: Uptake of 2-Fluoro-2-deoxygalactose by normal liver tissue
# [2] = test system: hepatocellular carcinoma cell lines; assay: Sulforhodamine B (SRB) growth inhibition assay; format: cell-based, Human; conditions: continuous treatment 72 h
# Procedure: The cells are cultured at 37 degrees C. in a humidified atmosphere containing 5% CO2. For passaging, cells grown in 75 cm2 flasks (6070% confluency) are washed with PBS and dissolved from the flasks with trypsin (Gibco BRL) before being plated. Ten thousand cells are plated into each well of a 96-well microtiter plate in 100 ul of medium. The cells are then incubated for 24 h at 37 degrees C. in a humidified atmosphere containing 5% CO2 prior to exposure to the 2-DG analog or other anti-cancer agent. Cultures are treated with a range of concentrations of 2-DGaI or a 2-DGaI analog solubilized in cell culture medium, diluted 100× to the desired concentration, continuously for 72 h. Docetaxel (Taxotere™, Aventis Pharmaceuticals, Inc.) solubilized in 100% DMSO and diluted 1000× to the desired concentration, is used as a positive control. The sulforhodamine B (SRB) assay, a dye-based method for determining cell number by virtue of SRB binding to basic amino acids of cellular macromolecules, is employed to assess the growth inhibitory activity of 2-DGal or a 2-DGal analog.
# [3] = test system: liver tumor serially passaged in nude mice; assay: Tumor growth delay study in a mouse xenograft model; format: in vivo; conditions: in combination with cisplatin (1 mg/kg i.p. days 1 to 5); 750 mg/kg orally twice daily; versus cisplatin alone
# Description: The efficacy of 2-DGaI or a 2-DGaI analog in combination with cisplatin can be compared with cisplatin alone in a tumor growth delay study in a mouse xenograft model. Small pieces of tumor, such as a liver tumor serially passaged in nude mice, are implanted subcutaneously in nude mice, and the tumors allowed to grow to 25 mm^2. Mice are then randomized to receive no treatment, treatment with 2-DGal or a 2-DGal analog alone, treatment with cisplatin alone, or treatment with both 2-DGal or a 2-DGaI analog and cisplatin. Cisplatin is dosed i.p. at 1 mg/kg on days 1 to 5.2-DGaI or a 2-DGaI analog is dosed orally at 750 mg/kg, twice daily, for the duration of the experiment. Each mouse is sacrificed when its tumor volume reaches 1000 mg.
smiles,measurement,setting,value
"O=CC[C@@H](O)[C@H](O)[C@H](O)CO [2-DG, 2-Deoxy-D-glucose, reference compound]",inhibition of glycolysis,[1],inhibit glycolysis
same,tumor growth in animal models,"tumor; Sokoloff 1955, Ball 1957",retard tumor growth
same,survival time,tumor,modest prolongation of survival time
same,tumor growth,tumor,inhibition of tumor growth
"O=C[C@H](F)[C@@H](O)[C@@H](O)[C@H](O)CO [2-Fluoro-2-deoxygalactose, 2-fluoro-2-deoxy-D-galactose]",concentration of transaminases,"CD 1 mice; CD1 mice, intraperitoneally",increases in concentration of transaminases
same,Alt (alanine aminotransferase),"CD 1 mice; Group 2, 10% 2-Fluoro-2-deoxygalactose intraperitoneally",109 U/L and 73 U/L and 72 U/L
same,Ast (aspartate aminotransferase),"CD 1 mice; Group 2, 10% intraperitoneally",234 U/L and 114 U/L and 118 U/L
same,Tbili (total bilirubin),"CD 1 mice; Group 2, 10% intraperitoneally",0.2 mg/dL (2×) and 0.3 mg/dL
same,Alt (alanine aminotransferase),"CD 1 mice; Group 3, 10% 2-Fluoro-2-deoxygalactose intravenously",45 U/L and 124 U/L and 30 U/L
same,Ast (aspartate aminotransferase),"CD 1 mice; Group 3, 10% intravenously",112 U/L and 116 U/L and 52 U/L
same,Tbili (total bilirubin),"CD 1 mice; Group 3, 10% intravenously",0.2 mg/dL (2×) and 0.1 mg/dL
same,gross pathology finding,CD 1 mice; intraperitoneal administered group,gross pathology finding of a single animal
same,rise in ALT and AST over normal animals,"CD 1 mice; intraperitoneal group, versus the two expected controls of Group 1",2-3 ×
same,unscheduled deaths,"CD 1 mice; intraperitoneal or intravenous single injection, CD 1 mice",no unscheduled deaths
same,test article related clinical findings,"CD 1 mice; intraperitoneal or intravenous single injection, clinical observations at least once daily",no adverse test article related clinical findings
same,"elevated enzymes (ALT, AST)","CD 1 mice; intravenous group, at 24 hours",one animal with elevated enzymes at 24 hours and two that has returned to normal
O=C[C@H](O)[C@@H](O)[C@@H](O)[C@H](O)CO [galactose],inhibition of uptake of 2-Fluoro-2-deoxygalactose,normal liver tissue,markedly inhibits the uptake
"O=CC[C@@H](O)[C@@H](O)[C@H](O)CO [2-DGal, 2-Deoxy-D-galactose]",inhibition of glycolysis,[1],inhibit glycolysis
same,survival time,tumor,modest prolongation of survival time
same,tumor growth,tumor,inhibition of tumor growth
same,efficacy relative to 2-DG,tumor; model systems of Laszlo et al. 1960,less efficacious
same,growth of hepatocellular carcinoma cell lines,[2],inhibits the growth
same,tumor growth delay,[3],delays tumor growth significantly more than treatment with cisplatin alone
